Point of comparison: `CCCCCCCC(=O)N(C)Cc1ccc(OCc2ccccc2)c(-c2ccc(C=C3SC(=O)NC3=O)cc2)c1`, melting point 93 °C. Against it:
- CCCc1nn(C)c2c(=O)n(CCCOc3ccc(SC(C)(C)C(=O)OCC)cc3)c(CC)nc12 — lower, 52 to 54 °C
- COC(=O)c1nc(-c2ccc([Si](C)(C)C)cc2F)c(F)c(N)c1OC — higher, 127 to 129 °C
- O=[N+]([O-])CS(=O)(=O)c1ccccc1C(F)(F)F — lower, 80 °C
- CCOC(=O)c1ncc(C)nc1O — higher, 153 °C
- COc1c(C2CCN(CCCCNC(=O)c3cc(-c4ccc(C#N)cc4)nn3CCO)CC2)ccc2c1CCCC2 — higher, 152 °C
- O=C1Nc2ccc3cn[nH]c3c2C1=O — higher, > 300 °C
- O=Cc1c(Cl)cc(Cl)cc1OCc1ccccc1 — higher, 98 to 100 °C
- COc1ccccc1C=CCCCCCC(=O)O — lower, 42 to 43 °C
- Cc1cc(C#N)cc(C(=O)Nc2ccc(F)c(F)c2)n1 — higher, 170 °C
- CCS(=O)(=O)Nc1cccc(C(=C(C)C)c2c[nH]cn2)c1 — higher, 152 to 155 °C
- CCOc1c(OC)cccc1-c1nc2ccc(C(=O)Cl)cc2c(=O)[nH]1 — not separable, 93 to 94 °C
- CCOC(=O)Cn1c(=O)c(=O)[nH]c2ccc3ccc([N+](=O)[O-])cc3c21 — higher, > 250 °C
- NNc1nc(Cl)nc2ccccc12 — higher, > 280 °C
- Cc1cc(C(C)(C)C)c(Cl)c(C)c1SSc1c(C)cc(C(C)(C)C)c(Cl)c1C — higher, 128 to 129 °C
- CCCCOc1cc(CCS(=O)(=O)NC(=O)OC(C)C)n(Cc2ccc(Cl)cc2Cl)n1 — higher, 120 to 121 °C
- NC(=O)Cc1cccc2c(=O)cc(C3=CCCCC3)oc12 — higher, 244 to 245 °C
- COCCc1nc2c(N)nc3cc(OCc4cccc(C#N)c4)ccc3c2n1CC(C)(C)O — higher, 196 to 197 °C
- CC=CC=CCOC(=O)C1=C(C)NC(C)=C(C(=O)OC)C1c1cccc([N+](=O)[O-])c1 (stereo not given) — higher, 135 to 136 °C
- O=C1CCC(=O)N1c1ncccn1 — higher, 148 to 150 °C
- COc1cc2c(cc1Nc1ncc(Cl)c(Nc3ccccc3S(=O)(=O)C(C)C)n1)CCN(CC(=O)N(C)C)CC2 — not separable, 83 to 94 °C
- CCc1nc(Cl)c(C(=O)N(C)CC)n1Cc1ccc2oc(-c3ccccc3NC(=O)OC(C)(C)C)c(Br)c2c1 — higher, 95 to 96 °C
- CCCCCN1C(=O)C(CO)(c2cc3c(cc2O)OCO3)c2ccccc21 (stereo not given) — higher, 125 to 127 °C
- CCN(CC)C(=O)N1CCN(c2nc(-c3ccccc3)cs2)CC1 — lower, 76 to 77 °C
- CC(C)(C)[S@](=O)N1CCC[C@H]1c1cccs1 — higher, 125 to 130 °C
- CCc1nc2cc(COC)c(Cl)cc2n1-c1ccc(CCNC(=O)NS(=O)(=O)c2ccc(C)cc2)cc1 — higher, 135 °C
- CNc1nc(-c2cccc(NC(=O)c3cccnc3)c2)c2cc(OC)c(OC)cc2n1 — higher, 251 to 253 °C
- COC(=O)c1cc(N)c(F)cc1Cl — lower, 76 to 78 °C
- COCC(COC)Oc1ccc(C#CC2(O)CN3CCC2CC3)cc1 (stereo not given) — higher, 125 to 127 °C
- CCc1cc(CO)c(OC)nc1C — lower, 53 to 55 °C
- Oc1ccc(CCCCCCc2ccc(O)cc2)cc1 — higher, 143 to 144 °C
- CN(C)c1ccc(C(=CC(C=C(c2ccc(N(C)C)cc2)c2ccc(N(C)C)cc2)c2ccc(N(C)C)cc2)c2ccc(N(C)C)cc2)cc1 — higher, 215 to 220 °C
- CC(C)c1cccc(C(C)C)c1NC(=O)NCC1(c2ccccc2)CC1 — higher, 138 to 142 °C
- CCOC(=O)CN(CP(=O)(ONN1CCOCC1)ONN1CCOCC1)C(=O)C(F)(F)F — lower, 69 to 74 °C
- Cn1c2ccccc2c(=O)c2c(-c3ccccc3NC(=O)C(C)(C)C)cccc21 — higher, 160 to 162 °C
- COC[C@@H](NC(C)=O)C(=O)NCc1ccc(N=[N+]=[N-])cc1 — higher, 149 to 150 °C
- Cn1ccnc1SCOC(=O)C(C)(C)C — higher, 128 to 132 °C
- O=c1cnn(-c2ccc(C(c3ccc(Cl)cc3)c3cc(-c4ccccc4)cs3)c(Cl)c2)c(=O)[nH]1 (stereo not given) — lower, 90 °C
- CCCCc1nc2ccc(C(=O)OC)cc2n1Cc1ccc(-c2ccccc2-c2nnn[nH]2)cc1 — higher, 224 to 225 °C
- CCOC(=O)c1ccc(OCCCCC2CC3=C(C2)C(=O)C(OC)=C(OC)C3=O)cc1 — higher, 97 to 99 °C
- CN(C)CC(=O)N1CCN(Cc2ccc3c(c2)Cc2c(-c4cccs4)n[nH]c2-3)CC1 — higher, 193 to 197 °C
- CCCCOc1n[nH]c(=O)n1C — lower, 77 °C
- CC(C)(Oc1ccc(C(=O)c2ccc(Cl)cc2)cc1)C(=O)Oc1ccc(I)cc1 — higher, 149 to 150 °C
- C=C(C)C(=O)N1c2ccc(OC)cc2CC1C(=O)O (stereo not given) — higher, 108 to 111 °C
- Cc1c(S(C)(=O)=O)cc(C(C)(C)C)c(O)c1C(=O)Nc1ccc(S(=O)(=O)C(F)(F)F)cc1Cl — higher, 220 to 221 °C
- CC(C)(C)c1cc(-c2csc3nc(-c4ccccc4)c(-c4ccccc4)n23)cc(C(C)(C)C)c1O — higher, 237 to 238 °C
- C[C@H](c1ccccc1CCn1cncn1)N(c1cc(F)ccc1F)S(=O)(=O)c1ccc(Cl)cc1 — higher, 116 to 118 °C
- CC1(C)CC(=O)C2C(=NC3=C(C(=O)CC(C)(C)C3)C2c2ccc(F)c(C#N)c2)C1 (stereo not given) — higher, 274 to 275 °C
- Cc1cccc(-c2[nH]c(C(C)C)nc2-c2cccc(-c3ccc(NS(=O)(=O)C4CC4)cc3F)c2)n1 — higher, 124 to 128 °C
- COc1ccc(C2(O)c3cccc(O)c3C(=O)c3c(O)cccc32)cc1 — higher, 172 to 173 °C
- COCCCS(=O)(=O)NC(=O)/C=C/c1cc(OC(C)C)nn1Cc1ccc(C(F)(F)F)cc1Cl — higher, 138 to 139 °C
- CCOC(=O)Nc1cccc(N2CCN(CCC3CCN(CC(C)=O)CC3)CC2)c1 — higher, 118 °C
- CC(C)n1nc(-c2sc(NC(=O)CN(C)CCN(C)C)nc2-c2ccccc2)ccc1=O — higher, 155 to 157 °C
- CC(=O)Nc1ccc(OC(F)(F)C(F)F)cc1 — higher, 121 to 122 °C
- Nc1nc2ccc(CO)cc2o1 — higher, 148 to 150 °C
- CCCCNc1c(C(=O)OCC)c(C)nc2[nH]nnc12 — higher, 188 to 189 °C
- Cc1nc(Nc2ccc(Cl)cc2)sc1-c1nc2ccccc2c(=O)n1-c1ccc(Cl)cc1 — higher, 267 to 268 °C
- Cc1n[nH]c2c1C(=O)CC(C)(C)C2 — higher, 103 to 104 °C
- CC(C)c1nc(-c2ncn3c2CN(C(=O)N2CCCC2)c2c(F)cccc2-3)no1 — higher, 169 to 170 °C
- CC(C)(C)NNC(=O)OC(C)(C)C — lower, 69 to 71 °C
- CC(=O)OC(OC(C)=O)c1ccc(C#N)cc1 — higher, 104 to 107 °C
- COc1cccc2c1C[C@H]1C[C@@H](CN3CCC(O)(c4ccc(Cl)cc4)CC3)CN(C)[C@@H]1C2 — higher, 202 to 204 °C
- O=C1CCC(N2Cc3c(CNC(=O)c4cccc(Cl)c4)cccc3C2=O)C(=O)N1 (stereo not given) — higher, 266 to 268 °C
- O=C(O)C=C1COc2ccccc2C1=O — higher, 134 to 136 °C
- COc1ccc(C2CC(C(C)(C)C)=NN2c2ccc(C(=O)O)cc2)cc1 (stereo not given) — higher, 209 °C
- CC(C#Cc1ccc(C(=O)Cc2ccc(F)cc2)o1)N(O)C(N)=O (stereo not given) — higher, 154 to 156 °C
- COC(=O)c1c(C)sc(C)c1N — lower, 75 to 77 °C
- COC(=O)c1ccnc(-c2cccc3cc(Cc4cc(F)cc(Cl)c4)sc23)c1 — higher, 102 to 103 °C
- BrCCCCCCCCCCCCCCCCCCCCBr — lower, 62 °C
- CS(=O)(=O)CCCOc1ccc(/C=C/C(=O)O)c(Oc2ncc(C(F)(F)F)cc2Cl)c1 — higher, 202 to 203 °C

Source: a melting point compilation (Tetko et al.; mined from patent text by program, amines drawn as free bases though some values may be those of a salt)
